According to article PMC8769072, “Proteome‐scale mapping of binding sites in the unstructured regions of the human proteome” (Molecular Systems Biology, 2022):

System: immobilized GST-tagged bait protein domains
Assay: ProP-PD phage selections (HD2 P8, sublibraries, HD2 P3, HD1 P8) with NGS and confidence level
Assay type: binding, human
[1] = HD2 library, bait TNKS_TANK-peptide-bind__O95271_174_649, known motif instance of the benchmarking set found (TRUE) or not found (FALSE) among selected peptides
[2] = HD2 library, bait CALM1_EF-hand__P0DP23_2_149, benchmark motif instance, in_library_check FALSE, in_library_coverage 0
[3] = library HD2, bait USP7_MATH-TRAF__Q93009_53_206, validated benchmark motif instance, in_library_check TRUE, TRUE/FALSE = instance recovered in ProP-PD selection
[4] = library HD2, bait EPS15_EH__P42566_121_215, best matching peptide
[5] = library HD2, bait EPS15_EH__P42566_121_215, confidence level of best matching peptide (4 High, 2-3 Medium, 1 Low)
[6] = library HD2, bait EPS15_EH__P42566_121_215, whether the validated benchmark motif instance was recovered in the ProP-PD selection (TRUE/FALSE)
[7] = bait MAP1LC3B_ATG8 (Q9GZQ8 2-119), HD2 library, benchmark motif instance recovered in the ProP-PD selection (TRUE/FALSE)
[8] = bait MAP1LC3A_ATG8 (Q9H492 2-121), HD2 library, benchmark motif instance recovered in the ProP-PD selection (TRUE/FALSE)
[9] = bait KPNA4_Arm (O00629 68-487), HD2 library, benchmark motif instance recovered in the ProP-PD selection (TRUE/FALSE)
[10] = HD2 library, bait SUMO1_SUMO__P63165_1_101, known motif instance of the benchmarking set found (TRUE) or not found (FALSE) among selected peptides
[11] = bait PABP-B_PABP__P11940_544_623, HD2 library, whether the validated benchmark motif instance was recovered in the ProP-PD selection (TRUE/FALSE)
[12] = HD2 library, bait TLN1_PTB__Q9Y490_309_401, known motif instance of the benchmarking set found (TRUE) or not found (FALSE) among selected peptides
[13] = bait SIN3A_PAH__Q96ST3_295_383, HD2 library, whether the validated benchmark motif instance was recovered in the ProP-PD selection (TRUE/FALSE)

SGGSDEAPPKPSRPGYPSPR [PTK2]
motif_found (bait CRK_SH3_1_P46108_124_198, library HD2, benchmarking set of validated motif instances, TRUE = motif instance recovered in the ProP-PD selection): FALSE

SEEGDNESRSAGDGTDWEKEDQ
motif_found [1]: FALSE

RRRFLHLKKAAIVFQKQLRGQIARRVYRQLLAEK [MYO10 789-808]
motif_found [2]: FALSE

KEPGGSRAHSSHLKSKKGQ
motif_found [3]: FALSE

LHIKTHLDEETGEKTSITLD
motif_found (library HD2, bait Keap1_KELCH__Q14145_321_609, whether the validated benchmark motif instance was recovered in the ProP-PD selection (TRUE/FALSE)): FALSE

RMATAEDLPLPPPPALEDL
motif_found (library HD2, bait VASP_EVH1__P50552_1_114, validated benchmark motif instance, in_library_check TRUE, TRUE/FALSE = instance recovered in ProP-PD selection): FALSE

NPFLAPGAPATSAPVN
best_specificity [4]: 1 | best_confidence [5]: 3 | motif_found [6]: TRUE

DSSKDSGFTIVSPLDI
motif_found [7]: TRUE | best_confidence (bait MAP1LC3B_ATG8 (Q9GZQ8 2-119), HD2 library, confidence level (1-4) of best matching peptide): 4 | best_specificity (bait MAP1LC3B_ATG8 (Q9GZQ8 2-119), HD2 library, specificity score of best matching peptide): 1

SQSSASSEDYIIILPECFDT
motif_found [8]: FALSE | motif_found [7]: FALSE

SPSLPNITLGLPATGP
HD confidence (bait ANKRA2_Ank__Q9H9E1_142_313, HD1 P8 library, confidence level (4 = High, 2-3 = Medium, 1 = Low)): 4 | HD mean counts (bait ANKRA2_Ank__Q9H9E1_142_313, HD1 P8 library, mean NGS counts over replicate selections): 701.75 | HD count proportions (bait ANKRA2_Ank__Q9H9E1_142_313, HD1 P8 library, mean proportion of NGS counts): 0.06192

NIHNSKAPKKNRLRRKSSTR
motif_found [9]: FALSE

ATQCDPEEIIVLSDSD-------
motif_found [10]: FALSE

FPTDERSWVYSPLHYS
HD confidence (bait TLN1_PTB__Q9Y490_309_401, library HD): 3 | p3_HD2 confidence (bait TLN1_PTB__Q9Y490_309_401, library HD2 P3): 2 | p3_HD2 count proportions (bait TLN1_PTB__Q9Y490_309_401, library HD2 P3, mean normalised NGS counts): 0.001295 | p3_HD2 mean counts (bait TLN1_PTB__Q9Y490_309_401, library HD2 P3, mean raw NGS counts, all selections): 12.2 | HD2 confidence (bait TLN1_PTB__Q9Y490_309_401, library HD2 P8): 4 | HD2_nc confidence (bait TLN1_PTB__Q9Y490_309_401, library HD2 P8 nucleocytoplasmic): 3 | HD2_nc count proportions (bait TLN1_PTB__Q9Y490_309_401, library HD2 P8 nucleocytoplasmic, mean normalised NGS counts): 0.1307 | HD2_nc mean counts (bait TLN1_PTB__Q9Y490_309_401, library HD2 P8 nucleocytoplasmic, mean raw NGS counts, all selections): 5802.8 | HD count proportions (bait TLN1_PTB__Q9Y490_309_401, library HD, mean normalised NGS counts): 0.08207 | HD mean counts (bait TLN1_PTB__Q9Y490_309_401, library HD, mean raw NGS counts, all selections): 2181

PPAGLNSSWVELPMNSSNG
motif_found [7]: FALSE

VPTLPPKQQFLPSSPG
HD2_nc confidence (bait CRK_SH3_1_P46108_124_198, HD2 P8 nucleocytoplasmic sublibrary, confidence level (4 = High, 2-3 = Medium, 1 = Low)): 4 | HD2_nc mean counts (bait CRK_SH3_1_P46108_124_198, HD2 P8 nucleocytoplasmic sublibrary, mean NGS counts over replicate selections): 1917.0 | HD2_nc count proportions (bait CRK_SH3_1_P46108_124_198, HD2 P8 nucleocytoplasmic sublibrary, mean proportion of NGS counts): 0.01185

FLGNGNELEWEDDTPVATAKNMPG
motif_found (library HD2, bait KLC1_TPR__Q07866_203_497, whether the validated benchmark motif instance was recovered in the ProP-PD selection (TRUE/FALSE)): FALSE

QMPADTPPPAYLPPEDPM
motif_found (bait NEDD4_WW_4 (P46934 890-928), HD2 library, benchmark motif instance recovered in the ProP-PD selection (TRUE/FALSE)): FALSE

QELQEEKPSSSHLVSRPST
motif_found [3]: FALSE

TKSTVTGERQSGDGQESTEPVE
motif_found [1]: FALSE

SNGSSINWPPEFHPGVPWKGLQNIDPEN
motif_found [11]: FALSE

LSKLDVLVLAASYIAH
HD2_nucleus confidence (bait SIN3A_PAH__Q96ST3_295_383, library HD2 P8 nucleus): 4

HDDFVMIDFKPAFSKD
motif_found [8]: TRUE | best_confidence (bait MAP1LC3A_ATG8 (Q9H492 2-121), HD2 library, confidence level (1-4) of best matching peptide): 3 | best_specificity (bait MAP1LC3A_ATG8 (Q9H492 2-121), HD2 library, specificity score of best matching peptide): 1

TNGAMNVEIGNPTYKMYEGGEP
motif_found [12]: FALSE

PFEEPTCINPFEMDSDSGP
motif_found [6]: FALSE

SQPVMRPPNPFGPVSGAQI
motif_found [6]: FALSE

LSSPLVPGNPFEEPTCINP
motif_found [6]: FALSE

AAAAYVDHFAAECLVSMSSRAVVH
motif_found [13]: FALSE

EFLSPEVFQHIWDFLEQPICSV
motif_found (bait MDM2_p53-binding-domain (Q00987 17-125), HD2 library, benchmark motif instance recovered in the ProP-PD selection (TRUE/FALSE)): FALSE

MSIETLLEAARFLEWQAQQQ
motif_found [13]: FALSE

ASTS
motif_found [3]: FALSE

PSTNPFVAAAGPSVAS
best_specificity [4]: 1 | best_confidence [5]: 2 | motif_found [6]: TRUE

RARAKWDTANNPLYKEATSTFT
motif_found [12]: FALSE

IQPDSPAPNPFSEEDEHPQ
motif_found [6]: FALSE

NGSSSVNWPPEFRPGEPWKGYPNIDPET
motif_found [11]: FALSE

PGGGHPAPSWVAFAHT
HD2 confidence (bait AP2B1_adaptin__P63010_700_937, HD2 P8 selection, non primary paralogue peptide match, confidence level -4 to 4: 4 = High, 3 or 2 = Medium, 1 = Low, 0 = Filtered/Noise): 4

KILRLSGKP
motif_found (bait MAD2L1_HORMA (Q13257 1-205), HD2 library, benchmark motif instance recovered in the ProP-PD selection (TRUE/FALSE)): FALSE

DGNLYPRLYPELSQYMGLS [SDCBP 49-53]
motif_found (HD2 library, bait PDCD6IP_Alix-V-domain__Q8WUM4_360_702, benchmark motif instance, in_library_check FALSE, in_library_coverage 0): FALSE

YSFFSPSPARKRHAPSPEPAV
motif_found [9]: FALSE

FASKPPTTNPFL-------
motif_found [6]: FALSE

LFKSATTTVMNPKFAES-----
motif_found [12]: FALSE

GHSPPPAYTPMSGNQF
best_confidence (library HD2, bait YAP1_WW_1_P46937_169_207, confidence level of best matching selected peptide (4 High, 2-3 Medium, 1 Low)): 3 | best_specificity (library HD2, bait YAP1_WW_1_P46937_169_207, specificity score of best matching selected peptide): 1 | motif_found (library HD2, bait YAP1_WW_1_P46937_169_207, validated benchmark motif instance, in_library_check TRUE, TRUE/FALSE = instance recovered in ProP-PD selection): TRUE

TPPGAKASNPFLPGGGPAT
motif_found [6]: FALSE

IPDTPSPTVSVITISSDTDE
motif_found [10]: FALSE

SKYITTIAGVMTLS
motif_found (library HD2, bait CALM1_EF-hand__P0DP23_2_149, motif instance NOT in library (in_library_check FALSE, in_library_coverage 0)): FALSE

RKQYRKVLYCVVIIQKNYRAFLLRRRFLHLKKAA [MYO10 766-785]
motif_found [2]: FALSE

PLYTSPSLPNITLGLP
best_specificity (bait ANKRA2_Ank__Q9H9E1_142_313, library HD2, best matching peptide): 1 | best_confidence (bait ANKRA2_Ank__Q9H9E1_142_313, library HD2, confidence level of best matching peptide (4 = High, 2 or 3 = Medium, 1 = Low)): 3

ARKEVIRNKIRAIGKMARVFSVLR,VIRNKIRAIGKMARVFS,KEVIRNKIRAIGKMARVFS [PPP3CA]
motif_found (bait CALM1_EF-hand__P0DP23_2_149, library HD2, benchmarking set of validated motif instances, TRUE = motif instance recovered in the ProP-PD selection): FALSE

PQLPHLQRSPPDGQSF
best_specificity (HD2 library, bait TNKS_TANK-peptide-bind__O95271_174_649, best matching selected peptide): 1 | best_confidence (HD2 library, bait TNKS_TANK-peptide-bind__O95271_174_649, confidence level of best matching selected peptide): 2 | motif_found [1]: TRUE

QQQLNWKQDSNPLYKSAITTTI
motif_found [12]: FALSE

PFSEQASLLDLDFDPLPPV [BIN1]
motif_found (bait CLTC_Clathrin-propeller__Q00610_1_364, library HD2, benchmarking set of validated motif instances, TRUE = motif instance recovered in the ProP-PD selection): FALSE

AESSQAVMSLPKLQQV
HD2 confidence (bait ANKRA2_Ank__Q9H9E1_142_313, library HD2 P8): 4

RDAEAHPWLSDYDDLTSAT
motif_found (bait PEX14_Pex14__O75381_16_84, HD2 library, whether the validated benchmark motif instance was recovered in the ProP-PD selection (TRUE/FALSE)): FALSE

TPDSRRVARPPPIGAEVPDVTA
motif_found [1]: FALSE

DTLWRPMPKLAPLGLKVAN
motif_found (library HD2, bait ZMYND11_coiled-coil-MYND__Q15326_480_602, validated benchmark motif instance, in_library_check TRUE, TRUE/FALSE = instance recovered in ProP-PD selection): FALSE

PPLNPHGSARAEVHLRKSAFD
motif_found (library HD2, bait WDR5_WD_1234567_P61964_21_334, validated benchmark motif instance, in_library_check TRUE, TRUE/FALSE = instance recovered in ProP-PD selection): FALSE

VLGDQRRPSLPALHFIKGAGKK
motif_found (library HD2, bait ANKRA2_Ank__Q9H9E1_142_313, motif instance NOT in library (in_library_check FALSE, in_library_coverage 0)): FALSE

SRHAQEPPAKRRKGSKGPEG-
motif_found [9]: FALSE

CNSDRVLKRSAEGSNPPKPLKKLRFDIEGSDE
motif_found [9]: FALSE

EEEEAVAGNPFIQPDSPAP
motif_found [6]: FALSE
